In assay [1] the test system is ADP-induced thrombocyte aggregation. Kind of assay: ADP-induced thrombocyte aggregation, donor human thrombocyte enriched plasm. To be noted: ADP inductor; for MA, %: human thrombocyte plasm; for inhibition at 1250 µM / inhibition at 2500 µM / inhibition at 5000 µM / inhibition at 200 µM / inhibition at 500 µM: Homo sapiens, read-out: (MA0-MAx): MA0 * 100%. Type of assay: cell-based. As to the method: (§1) The study of antiaggregant and anticoagulant properties of N,N′-substituted piperazines on the sample of donor human blood. The blood was collected by donor ulnar vein punction with dry sharp needle without syringe. The administration of drugs that influence on thrombocyte function was cancelled in 7÷10 days before the experiment.
(§2) In graduated plastic centrifuge tube 1 ml of 3.8% basic trisodium citrate solution with pH=7.4 was placed. The ulnar vein was punctuated, the freely effluent blood was collected up to 10 ml mark, the mixture was instantly stirred to prevent air bubbles appearance. The collected and stabilized blood was split in two 5 ml portions in two tubes.
(§3) To obtain thrombocyte enriched plasm the stabilized blood was spinned at 1000 rpm (150 g) for 8 min at room temperature. The repeated spinning of the blood at 3200 rpm (2300 g) for 20 min at 22° C. yielded thrombocyte depleted plasm.
(§4) The study of anticoagulant activity was done within 2 h after thrombocyte enriched plasm obtaining. The plasm was normalized to achieve thrombocyte concentration of 200-250×10^9/L by addition of thrombocyte-free plasm. The concentration of thrombocytes was measured on SOLAR AR 2110 analyzer.
(§5) Antiaggregant properties of N,N′-substituted piperazines were evaluated by their influence on thrombocyte aggregation in tests with ADP-, collagen- and ristocetin-induced aggregation. To dissolve N,N′-substituted piperazines and to dilute reagents Tris-HCl-buffer with pH=7.4 was used.
(§6) As the general characteristic of thrombocyte aggregation activity the maximum amplitude (MA) of aggregation was taken on. That is the peak value of transmittance coefficient of the sample after aggregation agent introduction expressed in % relative to the transmittance of thrombocyte-free plasm. The response was registered on ascending linear segment of aggregation curve for 16 s.
(§7) The measurements were done using 4-channel CHRONO-LOG 490-4D analyzer (CHRONO-LOG, USA). The temperature in the cell was 37° C., the spinning speed of magnetic stirrer was 1200 rpm.
(§8) In a cuvette 0.5 ml of N,N′-substituted piperazine solution was placed, then 0.4 ml of normalized thrombocyte plasm was added. The mixture was stirred and incubated at 37° C. for 5 min. The cuvette was placed in aggregometer, then 0.05 ml of aggregation inductor solution was added (ADP or collagen or ristocetin). Thrombocyte aggregation was measured for 3 min.
ADP-induced reversible thrombocyte aggregation test utilized CHRONO-PAR ADP reagent (CHRONO-LOG, USA) with 10 mol concentration. Primary (reversible) thrombocyte aggregation was evaluated by the response on addition of ADP threshold dose (ADP concentration is 1 mol) to plasm.

Assay [2] deals with Collagen-induced thrombocyte aggregation. Briefly: Collagen-induced thrombocyte aggregation, donor human thrombocyte enriched plasm. Type of assay: cell-based. As to conditions: collagen inductor; for MA, %: human thrombocyte plasm; for inhibition at 500 µM / inhibition at 1250 µM / inhibition at 2500 µM / inhibition at 5000 µM: Homo sapiens, read-out: (MA0-MAx): MA0 * 100%. As to the method: as §1, §2, §3, §4, §5, §6, §7, §8
In collagen-induced thrombocyte aggregation test CHRONO-PAR COLLAGEN reagent (CHRONO-LOG, USA) was diluted with buffer solution until collagen concentration reached 10 µg/ml.

The subject of assay [3] is thrombocyte depleted plasm coagulation. Kind of assay: Activated partial thromboplastin time (APTT), anticoagulant properties. Type of assay: biochemical, human. As to conditions: for APTT: thrombocyte depleted plasm. The protocol:
as §1, §2, §3
To study anticoagulant properties of N,N′-substituted piperazines activated partial thromboplastin time (APTT) was measured. That is the ability of N,N′-substituted piperazines to increase thrombocyte depleted plasm coagulation time compared to the ability of control sample. The set of reagents for APTT determination (Russian Scientific Research Institute of Hematology and Transfusiology Ministry of Health of Russian Federation by Technical Regulation 9398-214-01966456-99) and COAG-A-MATE® XM coagulometer (ORGANON TEKNIKA, USA) were used.
The solutions of N,N′-substituted piperazines were mixed with thrombocyte depleted plasm at 1:1 ratio, then 0.1 ml of APTT reagent was added, the mixture was incubated in the cuvette for 5 min at 37° C., then 0.1 ml of 0.277% CaCl2 solution was added. The time of coagulation (in seconds) was measured.

The subject of assay [4] is Ristocetin-induced thrombocyte aggregation. Briefly: Ristocetin-induced thrombocyte aggregation, donor human thrombocyte enriched plasm. Type of assay: cell-based. As to conditions: ristocetin inductor; for MA (60 c), %: amplitude at 60 s. The protocol: as §1, §2, §3, §4, §5, §6, §7, §8
To study ristocetin-induced thrombocyte aggregation CHRONO-PAR RISTOCETIN reagent (CHRONO-LOG, USA) was diluted with buffer solution until ristocetin concentration reached 12 mg/ml. Thrombocyte aggregation amplitude was measured in 60 s after the beginning of the reaction.

Each structure is given as a SMILES string.

With `COc1ccc(C(=O)N2CCN(C(=N)NC(=N)N)CC2)c(OC)c1OC.Cl` [Example 2, N-carbamidoyl-4-(2,3,4-trimethoxybenzoyl)piperazine-1-carboximidamide hydrochloride], the “MA, %” value in assay [1] (1.25 mmol/L) is recorded as 15.0 ± 1.8%; in assay [1] (2.50 mmol/L) it was 8.7 ± 2.2%; in assay [1] (5.0 mmol/L) it was 3.1 ± 0.8%; in assay [2] (0.5 mmol/L), 73.0 ± 7.3%; in assay [2] (1.25 mmol/L) it was 65.10 ± 1.8%; in assay [2] (2.5 mmol/L) it was 58.7 ± 2.9%. Also, the “MA, %” value in assay [2] (5.0 mmol/L) came to 24.1 ± 0.8%. Moreover, the inhibition at 1250 µM in assay [1] (1.25 mmol/L) was found to be 21.1%; in assay [2] (1.25 mmol/L), 17.9%. Also, the inhibition at 2500 µM in assay [1] (2.50 mmol/L) was found to be 55%; in assay [2] (2.5 mmol/L), 26%. Moreover, the inhibition at 5000 µM in assay [1] (5.0 mmol/L) came out at 84.2%; in assay [2] (5.0 mmol/L), 69.6%. For the same compound, the inhibition at 500 µM in assay [2] (0.5 mmol/L) was found to be 7.9%.

For `COc1ccc(CN2CCN(C(=N)NC(=N)N)CC2)c(OC)c1OC.Cl` [Example 4, N-carbamidoyl-4-(2,3,4-trimethoxybenzyl)piperazine-1-carboximidamide hydrochloride], the “MA, %” value is listed as 10.6 ± 2.0% in assay [1] (1.25 mmol/L); 5.7 ± 1.1% in assay [1] (2.50 mmol/L); 1.7 ± 0.5% in assay [1] (5.0 mmol/L); 59.0 ± 5.9% in assay [2] (1.25 mmol/L); 52.2 ± 7.9% in assay [2] (2.5 mmol/L); 26.2 ± 3.5% in assay [2] (5.0 mmol/L). Further, the results for the inhibition at 1250 µM in assay [1] (1.25 mmol/L) and in assay [2] (1.25 mmol/L) were 42.1% and 22.1%, respectively. The results for the inhibition at 2500 µM in assay [1] (2.50 mmol/L) and in assay [2] (2.5 mmol/L) were 68.9% and 31%, respectively. The results for the inhibition at 5000 µM in assay [1] (5.0 mmol/L) and in assay [2] (5.0 mmol/L) were 90.7% and 65.4%, respectively.

Take `COc1cc(CN2CCN(C(=N)N)CC2)ccc1OCC(C)C.Cl` [Example 12, 4-(4-(2-methylpropyloxy)-3-methoxybenzyl)piperazine-1-carboximidamide hydrochloride]: the “MA, %” value stood at 14.1 ± 2.0% in assay [1] (0.2 mmol/L); 11.2 ± 3.3% in assay [1] (0.5 mmol/L); 5.1 ± 2.2% in assay [1] (1.25 mmol/L); 1.7 ± 0.3% in assay [1] (2.50 mmol/L); 71.9 ± 5.1% in assay [2] (0.5 mmol/L); 63.1 ± 9.1% in assay [2] (1.25 mmol/L). Besides, the “MA, %” value is listed as 55.4 ± 9.0% in assay [2] (2.5 mmol/L) and 51.0 ± 7.1% in assay [2] (5.0 mmol/L). For the same compound, the inhibition at 200 µM in assay [1] (0.2 mmol/L) came to 10.2%. Further, the inhibition at 500 µM worked out at 28.7% in assay [1] (0.5 mmol/L) and 6.5% in assay [2] (0.5 mmol/L). The inhibition at 1250 µM turned out to be 67.5% in assay [1] (1.25 mmol/L) and 16.8% in assay [2] (1.25 mmol/L). The inhibition at 2500 µM was determined as 89.2% in assay [1] (2.50 mmol/L) and 28% in assay [2] (2.5 mmol/L). In assay [2] (5.0 mmol/L), the inhibition at 5000 µM was determined as 35%. Besides, the “(APTTx-APTT0): APTT0 * 100%” value amounted to 9.4% in assay [3] (1.7 mmol/L), 38.0% in assay [3] (2.5 mmol/L), 53.3% in assay [3] (4.1 mmol/L) and 205.7% in assay [3] (8.3 mmol/L). Also, the “APTT” value in assay [3] (1.7 mmol/L) was 50.1 ± 4.0 s; in assay [3] (2.5 mmol/L), 63.2 ± 5.1 s; in assay [3] (4.1 mmol/L), 70.2 ± 3.2 s; in assay [3] (8.3 mmol/L), 140.0 ± 4.7 s.

For `COc1ccc(CN2CCN(C(=N)N)CC2)c(OC)c1OC.O=C(O)/C=C/C(=O)O` [Example 8, 4-(2,3,4-trimethoxybenzyl)piperazine-1-carboximidamide fumarate], the “MA, %” value in assay [1] (0.2 mmol/L) is listed as 18.5 ± 2.8%; in assay [1] (0.5 mmol/L), 14.3 ± 3.0%; in assay [1] (1.25 mmol/L), 8.5 ± 2.8%; in assay [1] (2.50 mmol/L), 2.5 ± 1.6%; in assay [2] (0.5 mmol/L) it was 72.3 ± 6.3%; in assay [2] (1.25 mmol/L), 63.5 ± 9.8%. Besides, the “MA, %” value worked out at 58.5 ± 9.6% in assay [2] (2.5 mmol/L) and 51.3 ± 7.9% in assay [2] (5.0 mmol/L). Besides, the inhibition at 200 µM in assay [1] (0.2 mmol/L) was found to be 2.6%. The inhibition at 500 µM was determined as 24.7% in assay [1] (0.5 mmol/L) and 5.2% in assay [2] (0.5 mmol/L). In addition, the inhibition at 1250 µM was found to be 55.3% in assay [1] (1.25 mmol/L) and 16.8% in assay [2] (1.25 mmol/L). In addition, the inhibition at 2500 µM in assay [1] (2.50 mmol/L) came out at 86.8%; in assay [2] (2.5 mmol/L), 23.3%. Besides, the inhibition at 5000 µM in assay [2] (5.0 mmol/L) was 32.8%. Moreover, the “MA (60 c), %” value in assay [4] (0.2 mmol/L) turned out to be 60.4 ± 9.1%; in assay [4] (0.5 mmol/L), 50.7 ± 8.7%; in assay [4] (1.25 mmol/L) it was 48.0 ± 5.8%; in assay [4] (2.5 mmol/L) it was 39.2 ± 11.6%; in assay [4] (5.0 mmol/L), 33.4 ± 9.9%. Besides, the “(MAx-MA0): MA0 * 100%” value in assay [4] (0.5 mmol/L) came out at 16.1%. Moreover, the “(MAx-MA0): MA0 * 100% (Ozagrel: (MA0-MAx): MA0 * 100%)” value in assay [4] (1.25 mmol/L) is 20.5%; in assay [4] (2.5 mmol/L), 35.1%; in assay [4] (5.0 mmol/L), 44.7%. For the same compound, the “(APTTx-APTT0): APTT0 * 100%” value in assay [3] (1.7 mmol/L) was determined as 27.0%; in assay [3] (2.5 mmol/L) it was 56.5%; in assay [3] (4.1 mmol/L) it was 89.4%; in assay [3] (8.3 mmol/L), 201.5%. Besides, the “APTT” value in assay [3] (1.7 mmol/L) was 61.1 ± 4.4 s; in assay [3] (2.5 mmol/L), 71.3 ± 5.2 s; in assay [3] (4.1 mmol/L), 91.1 ± 9.9 s; in assay [3] (8.3 mmol/L), 145.0 ± 7.3 s.

(Values after patent publication US9249115B2, “N,N1 substituted piperazines having combined antiaggregant, anticoagulant and vasodilatory activity, and method for producing same” (Vertex Closed Joint Stock Company, priority 2011, dated 2016).)
